The source of these data is US20050232933A1, “CMV-IE1 peptides and method of use” (priority 2003, published 2005).

Like-named read-outs stand apart in the source and are kept apart here.

Assay [1] has as its system CD8 human cells. The settings on record: cited from earlier work; for Stimulatory grade, B: Khan et al. 2002 (ELISPOT): HLA A*0201.
The subject of assay [2] is CD8 human cells. Nature of the assay: Summary of stimulatory CMV IE1 HLA A*0201 restricted peptides, present report (Table I, A). The format is cell-based. The text has this: These mutations may contribute to the low incidence of response to individual IE1 peptides. The locations of putative mutations are underlined. See Frankenberg et al., Virology 295: 208-216, 2002. Typically, the mutations that would most dramatically affect the binding of an epitope into the MHC molecule are situated at the anchor site, amino acid positions p2 and p9 of a peptide. See Falk et al., Semin. Immunol. 15:81-94, 1993; Zaia et al., J. Virol. 75:2472-2474, 2001. The only peptide showing a p2-p9 unstable mutation site is IE1-315, first described by Retiere (J. Virol. 74:3948-3952, 2000) using a TNF release assay. […] See Khan et al., J. Infect. Dis. 185:1025-1034, 2002. However IE1-316, which contains possible mutations at site p1 and p8, was more frequently recognized in this same study (6 out of 18) in an IFN-γ elispot assay. IE1-297, possibly mutated at p1 and p5, is a strong candidate for CMV immune recognition as well, since 3 of 4 patient PBLs responded in an ICC (intracellular cytokine) assay. Therefore, despite the presence of point mutation sites in IE1 epitopes, provided the anchor sites are intact, IE1-297 and IE1-316 peptides are presented by the MHC molecule after immunization with or exposure to CMV in HLA A*0201 subjects. In summary, IE1-297, IE1-316 and IE1-256 are peptides that stimulate CD8 human cells (Table I).

Assay [3] relates to CD8 human cells. The settings on record: HLA A*0201; (pN) = peptide number in the source; cited from earlier work.
Assay [4] deals with T1, HLA A*0201 molecule on T2 cells (Homo sapiens, UniProt P04439, D140Y/D185E/D98H/E176V/E277Q/G131W/G231S/I119V/I121R/I166T/I218V/L300P/L318F/N151K/N90K/P208A/P217A/Q86G/Q94H/R138H/R169H/T345S).
T1 construct: host or cells: T2 cells
It counts as binding. From the text: T2 cells, ATCC accession no. CRL-1992, are defective for endogenous class I presentation, but peptide binding to the MHC molecule stabilizes its expression on the cell surface. The stabilized MHC molecule can be detected by flow cytometry with a monoclonal antibody to the HLA A*0201 molecule. T2 cells express HLA A*0201 but not the HLA DR and are class II MHC antigen negative. […] A293 cells are human embryonic kidney cells. A293-IE1 is a stably transfected human kidney cell line endogenously expressing the CMV-IE1 protein. All cells used in experiments were mycoplasma-free and were maintained in RPMI-1640 supplemented with 10% FBS, penicillin-streptomycin and 2 mM glutamine.
T2 cells are defective for endogenous class I presentation but the presence of peptide binding to the MHC molecule will stabilize its expression on the cell surface. The stabilized MHC molecule can be detected by flow cytometry using a monoclonal antibody to the HLA A-A*0201 molecule. Peptide sequences were selected using two algorithms for HLA peptide predicted motifs publicly available on the internet ([…] (Rammensee et al., Immunogenetics 50:213-219, 1999) and BIMAS).
The peptides were assayed on T2 cells for their ability to bind and stabilize the A2 molecules on the cell surface according to methods described in Gricks et al., Cancer Res. 61:5145-5152, 2001, with modifications. […] The level of stabilized HLA-A2 on the surface of the T2 cells was determined according to known methods using monoclonal antibody BB7.2, which specifically recognizes HLA A*0201 as described in BenMohamed et al., Hum. Immunol. 61:764-779, 2000 and Parham et al., Hum. Immunol. 3:277-299, 1981 and a FITC-labeled goat anti-mouse F(ab′)2. Fluorescence was detected with a FACSCalibur™ flowcytometer. Numbers in the peak channel were compared to control T2 cells that contained HLA mismatch B7 peptide or no peptide.
The results were expressed as fold increased fluorescence compared to the mean of no peptide and HLA mismatch B7 peptide.

In assay [5] the test system is CD8 cells. The assay can be described thus: Intracellular cytokine (ICC) IFN-γ assay, fresh blood from CMV seropositive stem cell transplantation subjects. It counts as cell-based, human. The method, then: Having identified IE1-297 peptide as an important epitope in the process of CTL response to CMV-IE1 immunization in A2 transgenic mice, this peptide was tested to determine if it was recognized by CD8 cells from CMV seropositive human subjects. Fresh whole blood samples were collected from four individuals susceptible to CMV reactivation 40, 120, 150 and 180 days after stem cell transplantation. Frozen white blood cells from the human subjects were stimulated for 6 hours with 100 μM IE1-297, pp65(p495) or HIV peptide (negative control) and PHA (positive control). The cells then were stained to detect CD8 and IFN-γ production. Four patient samples were analyzed by cytokine flow cytometry.

Assay [6] concerns CD8+ peripheral blood lymphocytes. Nature of the assay: ICC/IFN-γ assay, cryopreserved PBL of HLA-A2 HCT subjects. The settings on record: CMV reactivation.
Description: Five CMV seropositive HLA A2 human subjects showing CMV reactivation within 100 days post hematopoietic cell transplantation (HCT) and 6 CMV seropositive subjects without CMV reactivation were followed at days 40, 90, 120, 150, 180 and 360 post HCT. The intracellular IFN-γ response (ICC) to CMVpp65p495-503, CMV-IE1-256, IE1-297 and IE1-316 and the CD8 MHC/peptide binding (tetramer assay) using CMVpp65p495-503, IE1-297 and IE1-316 were analyzed in two groups.
Eleven HLA A*0201 HCT recipients, at risk for CMV infection because of donor and/or recipient CMV-seropositivity, were enrolled in this study. The subjects included related sibling donors and recipients of allogeneic HCT for hematologic malignancies as well as HCT recipients of matched unrelated donor (MUD).
Peripheral blood mononuclear cells (PBMC) from heparin-treated whole blood were isolated using Histopaque™-1077 density gradients, washed with 1× phosphate-buffered saline (PBS) and cryopreserved in aliquots of 3×10^6 to 5×10^6 cells/mL in 90% fetal bovine serum (FBS) and 10% dimethylsulfoxide. The plasma was collected by centrifugation, filtered through 0.45 μm Acrodisc™ filters and stored at −20° C. until DNA extraction.
Donor samples (except for MUD subjects) were drawn before administration of granulocyte-colony stimulating factor (G-CSF) and later at the time of harvest. Recipient blood samples were collected at day 40, 90, 120, 150, 180 and 360 post-transplant for ICC and tetramer binding assays, and the CMV reactivation was monitored starting at day 21 post-HCT and twice weekly until day 100 using a shell vial assay and quantitative PCR.
To evaluate the immune reactivity to CMV in HLA-A2 subjects, cryopreserved peripheral blood lymphocytes (PBL) from the subjects were stimulated with peptides derived from CMV-pp65 and CMV-IE1 proteins. […] The positive stimulation control contained phytohemagglutinin (PHA) and the negative control contained HIV peptide.
After 1 hour incubation at 37° C. in 5% CO2, 1 μL (stock 5 mg/mL) of Brefeldin A, a cytokine secretion inhibitor, was added to the cells and further incubated overnight. Samples were then washed with 1×PBS and 0.5% bovine serum albumin and stained for 20 minutes in the dark with 5 μL of anti-CD8 antibody conjugated to streptavidin-phycoerythrin (CD8-PE). The cells were fixed and permeabilized for 20 minutes using the Cytofix/Cytoperm Kit™ (Pharmingen™) and stained for 30 minutes at 4° C. in the dark with 1 μL of anti-IFN-γ conjugated with streptavidin-allophycocyanin (APC).
After purification, the peptides were dissolved in 10% DMSO/water to a concentration of 5 mM and used at a final concentration of 25 μM for T cell stimulation. […] The latter two peptides served as a positive and negative control, respectively.
For FACS, patient cell samples were washed twice with 1× Cytofix™ Wash Solution for analysis by fluorescence-activated cell sorting using a FACScalibur™ instrument. The lymphocytes were gated based on forward and side scatter. A minimum of 50,000 events were analyzed per sample. The reported data are the values obtained after subtraction of background levels acquired with HIV peptide stimulation (which ranged from 0.0% to 0.5%).
Setting [7] is: T2 cells, 100 μM peptide, 18 hours.
Where [8] appears, read: fluorescence compared to the mean of no peptide and HLA mismatch B7 peptide, 100 μM peptide.

Consider “YVLEETSVM (listed as Human cytomegalovirus) [IE1-315]”, for which the “subjects recognizing the peptide in IFN-γ elispot” value in assay [1] (out of 18 subjects, Khan et al.) is recorded as “one subject out of 18”.

Consider “VLAELVKQI (listed as Human cytomegalovirus) [IE1-81]”, for which the “Stimulatory grade, A: Present Report” value in assay [2] is recorded as “neg”. The “Stimulatory grade, C: Frankenberg et al. 2002 (IVS4)” value (“Stimulatory grade, C” below) in assay [3] is on record as “(p2) neg”. For the same substance, in assay [1], the “Stimulatory grade, B: Khan et al. 2002 (ELISPOT)” value (shortened to “Stimulatory grade, B”) was “neg”. The substance further came in with a peak channel in assay [4] (setting [7]) of 495. The “Fold Increase” value in assay [4] (setting [8]) was 2 fold.

Take phytohemagglutinin [PHA]: the “% CD8+/IFN-γ” value in assay [5] (Patient No. 70, 150 days post-transplant) is listed as below 33.15%; in assay [5] (Patient No. 70, 180 days post-transplant), 19.2%; in assay [5] (Patient No. 93, 120 days post-transplant), 37.6%; in assay [5] (Patient No. 100, 40 days post-transplant) it was 2.09%. Further, the “% CD8+/IFN-γ+ after peptide stimulation” value in assay [6] (Subj. 54, Day 40 post-HCT) came to 0.54%; in assay [6] (Subj. 54, Day 90 post-HCT) it was 5.34%; in assay [6] (Subj. 54, Day 150 post-HCT) it was 1.78%; in assay [6] (Subj. 54, Day 180 post-HCT) it was 4.27%; in assay [6] (Subj. 54, Day 360 post-HCT), 6.91%; in assay [6] (Subj. 70(D) donor, postG), 0.63%. The “% CD8+/IFN-γ+ after peptide stimulation” value in assay [6] (Subj. 70(D) donor, preG) worked out at 0.24%; in assay [6] (Subj. 70, Day 40 post-HCT) it was 0.64%; in assay [6] (Subj. 70, Day 90 post-HCT), 5.09%; in assay [6] (Subj. 70, Day 120 post-HCT), 4.01%; in assay [6] (Subj. 70, Day 150 post-HCT), 2.44%; in assay [6] (Subj. 70, Day 180 post-HCT), 2.88%. The “% CD8+/IFN-γ+ after peptide stimulation” value in assay [6] (Subj. 70, Day 360 post-HCT) was 3.5%; in assay [6] (Subj. 93(D) donor, postG), 6.08%; in assay [6] (Subj. 93(D) donor, preG), 2.08%; in assay [6] (Subj. 93, Day 40 post-HCT), 6.32%; in assay [6] (Subj. 93, Day 120 post-HCT) it was 12.46%; in assay [6] (Subj. 93, Day 150 post-HCT) it was 21.01%. In addition, the “% CD8+/IFN-γ+ after peptide stimulation” value in assay [6] (Subj. 93, Day 360 post-HCT) was 16.5%; in assay [6] (Subj. 94, Day 40 post-HCT), 23.17%; in assay [6] (Subj. 94, Day 90 post-HCT), 21.58%; in assay [6] (Subj. 94, Day 120 post-HCT) it was 14.53%; in assay [6] (Subj. 94, Day 150 post-HCT), 15.03%; in assay [6] (Subj. 94, Day 180 post-HCT) it was 29.1%. Moreover, the “% CD8+/IFN-γ+ after peptide stimulation” value in assay [6] (Subj. 94, Day 360 post-HCT) came out at 20.21%; in assay [6] (Subj. 105(D) donor, postG), 5.3%; in assay [6] (Subj. 105, Day 40 post-HCT), 11.56%; in assay [6] (Subj. 105, Day 90 post-HCT), 40.76%; in assay [6] (Subj. 105, Day 120 post-HCT), 29.38%; in assay [6] (Subj. 105, Day 150 post-HCT) it was 26.14%.

On to “RPHERNGFTVL (listed as Human cytomegalovirus) [CMVB7-265]”, for which the peak channel in assay [4] (setting [7]) is 261. The “Fold Increase” value in assay [4] (setting [8]) came out at 1 fold.

With TPRVTGGGAM [CMVB7-417], in assay [4], the “Fold Increase” value is 1 fold and the peak channel is 232.

Regarding “ILGADPLRV (listed as Human cytomegalovirus) [IE1-355]”, the “Stimulatory grade, C” value in assay [3] was “(p10) poor”. In addition, in assay [1], the “Stimulatory grade, B” value is “neg”.

Regarding “SLLSEFCRV (listed as Human cytomegalovirus) [IE1-303]”, in assay [3], the “Stimulatory grade, C” value was “(p9) poor”. Further, in assay [1], the “Stimulatory grade, B” value was “neg”.

In the case of “LLSEFCRV (LLSEFCRVL; listed as Human cytomegalovirus) [IE1-304]”, the “Stimulatory grade, A: Present Report” value in assay [2] was “neg”. The “Stimulatory grade, C” value in assay [3] was “(p4) neg”. For the same substance, the “Stimulatory grade, B” value in assay [1] is given as “neg”. In assay [4] (setting [7]), the peak channel amounted to 433. The “Fold Increase” value in assay [4] (setting [8]) turned out to be 1.8 fold.
